Earlier results as cited in PMC9329312, “Decoding kinase-adverse event associations for small molecule kinase inhibitors” (Nature Communications, 2022).

Conditions: ref FAERS

CCOc1cc2ncc(C#N)c(Nc3ccc(OCc4ccccn4)c(Cl)c3)c2cc1NC(=O)/C=C/CN(C)C [neratinib]
5.3%: Hospitalisation, % of Cases
1.5%: Feeling abnormal, % of Cases | Hepatic enzyme increased, % of Cases
4.4%: Dyspepsia, % of Cases
25.2%: Fatigue, % of Cases
0.75%: Dysuria, % of Cases | Fall, % of Cases
0.5%: Dysphagia, % of Cases | Erythema, % of Cases | Gait disturbance, % of Cases | Gastrointestinal sounds abnormal, % of Cases | Heart rate increased, % of Cases | Hypersensitivity, % of Cases
5.4%: Headache, % of Cases
1.0%: Hypoaesthesia, % of Cases
1.2%: Epistaxis, % of Cases | Insomnia, % of Cases
2.0%: Dry skin, % of Cases
0.3%: Dry eye, % of Cases | Gastric disorder, % of Cases | Gastritis, % of Cases | Haematemesis, % of Cases | Hepatitis, % of Cases | Influenza like illness, % of Cases
0.15%: Drug resistance, % of Cases | Duodenal ulcer, % of Cases | Dysphonia, % of Cases | Ear infection, % of Cases | Eating disorder, % of Cases | Ejection fraction decreased, % of Cases | Eye pruritus, % of Cases | Feeling jittery, % of Cases | Haemorrhoids, % of Cases | Hair growth abnormal, % of Cases | Hepatic failure, % of Cases | Herpes zoster, % of Cases | Hiccups, % of Cases | Hordeolum, % of Cases | Hyperchlorhydria, % of Cases | Hypertension, % of Cases | Hypoaesthesia oral, % of Cases | Hypophagia, % of Cases | Hypoxia, % of Cases | Hysterectomy, % of Cases | Impaired healing, % of Cases | Intentional product use issue, % of Cases | Intentional underdose, % of Cases
0.375%: Eructation, % of Cases | Feeding disorder, % of Cases | Gastroenteritis viral, % of Cases | Haemorrhage, % of Cases | Impaired quality of life, % of Cases
2.7%: Dry mouth, % of Cases | Gastrooesophageal reflux disease, % of Cases
0.225%: Early satiety, % of Cases | Electrolyte imbalance, % of Cases | Eye discharge, % of Cases | Faeces pale, % of Cases | Fluid retention, % of Cases | Full blood count abnormal, % of Cases | Gastrointestinal disorder, % of Cases | Glomerular filtration rate decreased, % of Cases | Hyperglycaemia, % of Cases | Intentional dose omission, % of Cases
1.7%: Dyspnoea, % of Cases | Flatulence, % of Cases | Illness, % of Cases | Incorrect dose administered, % of Cases
0.7%: Emergency care, % of Cases | Hospice care, % of Cases | Influenza, % of Cases
0.45%: Dysgeusia, % of Cases | Faeces soft, % of Cases | Haemoglobin decreased, % of Cases | Hypokalaemia, % of Cases | Inappropriate schedule of product administration, % of Cases
0.075%: Dry throat, % of Cases | Dysarthria, % of Cases | Dysphemia, % of Cases | Dyspnoea exertional, % of Cases | Dysstasia, % of Cases | Ear pain, % of Cases | Ecchymosis, % of Cases | Eczema, % of Cases | Electrocardiogram QT prolonged, % of Cases | Energy increased, % of Cases | Enteritis, % of Cases | Eosinophil count increased, % of Cases | Epinephrine abnormal, % of Cases | Escherichia sepsis, % of Cases | Escherichia urinary tract infection, % of Cases | Exfoliative rash, % of Cases | Eye infection, % of Cases | Eye irritation, % of Cases | Eye pain, % of Cases | Eyelid margin crusting, % of Cases | Facial pain, % of Cases | Facial paralysis, % of Cases | Faecaloma, % of Cases | Faeces discoloured, % of Cases | Faeces hard, % of Cases | Failure to thrive, % of Cases | Febrile neutropenia, % of Cases | Fibromyalgia, % of Cases | Flank pain, % of Cases | Flushing, % of Cases | Food aversion, % of Cases | Food craving, % of Cases | Food poisoning, % of Cases | Fracture, % of Cases | Frustration tolerance decreased, % of Cases | Fungal infection, % of Cases | Furuncle, % of Cases | Gait inability, % of Cases | Gastric cancer stage IV, % of Cases | Gastric dilatation, % of Cases | Gastric neoplasm, % of Cases | Gastric ulcer haemorrhage, % of Cases | Gastroenteritis norovirus, % of Cases | Gastroenteritis, % of Cases | Gastrointestinal haemorrhage, % of Cases | Gastrointestinal infection, % of Cases | Gastrointestinal perforation, % of Cases | Gastrostomy, % of Cases | Gingival bleeding, % of Cases | Gingivitis, % of Cases | Glossodynia, % of Cases | Glycosylated haemoglobin increased, % of Cases | Gout, % of Cases | Groin pain, % of Cases | Haematocrit decreased, % of Cases | Haemoglobin abnormal, % of Cases | Haemorrhoidal haemorrhage, % of Cases | Hair growth rate abnormal, % of Cases | Hair texture abnormal, % of Cases | Hallucination, % of Cases | Head and neck cancer, % of Cases | Head discomfort, % of Cases | Heart rate decreased, % of Cases | Helicobacter infection, % of Cases | Hepatic cyst, % of Cases | Hepatic enzyme abnormal, % of Cases | Hepatic function abnormal, % of Cases | Hepatic steatosis, % of Cases | Hepatomegaly, % of Cases | Hepatotoxicity, % of Cases | Hernia, % of Cases | Hip arthroplasty, % of Cases | Human epidermal growth factor receptor negative, % of Cases | Hydrocephalus, % of Cases | Hyperbilirubinaemia, % of Cases | Hyperhidrosis, % of Cases | Hypersomnia, % of Cases | Hypogeusia, % of Cases | Hypomagnesaemia, % of Cases | Hyponatraemia, % of Cases | Hypophosphataemia, % of Cases | Hypovolaemia, % of Cases | Impaired driving ability, % of Cases | Implantable defibrillator insertion, % of Cases | Incision site abscess, % of Cases | Incorrect dosage administered, % of Cases | Increased appetite, % of Cases | Infrequent bowel movements, % of Cases | Intensive care, % of Cases | Intervertebral disc protrusion, % of Cases | Intestinal haemorrhage, % of Cases | Intestinal obstruction, % of Cases
0.6%: Haematochezia, % of Cases | Hot flush, % of Cases | Hypotension, % of Cases | Infection, % of Cases
2.1%: Drug titration, % of Cases
